Measurements: patent publication US8802597B2, “Herbicidal pyrimidines” (E I du Pont de Nemours and Company, priority 2003, dated 2014)

Legend:
Format in all cases: in vivo
[1] = tested on: goosegrass (Eleusine indica); experiment: Test C pre/postemergence
In short: (§1)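 Rating scale 0–100: 0 means no effect, 100 complete control; taken visually 12 to 14 days post-treatment versus controls. Pre- and postemergence greenhouse applications, postemergence at 1- to 4-leaf stage, non-phytotoxic solvent with surfactant as carrier.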

[2] = tested on: cocklebur (Xanthium strumarium); experiment: Test C pre/postemergence
In short: as §1

[3] = tested on: bermudagrass (Cynodon dactylon); experiment: Test C pre/postemergence; conditions: for Plant response rating (scale of 0 to 100), Bermudagrass / Bermudagrass plant response rating: Postemergence; for Bermudagrass plant response rating: scale 0 to 100 (0 no effect, 100 complete control)
In short: as §1

[4] = tested on: velvetleaf (Abutilon theophrasti); experiment: Test C pre/postemergence
In short: as §1

[5] = tested on: lambsquarters (Chenopodium album); experiment: Test C pre/postemergence
In short: as §1

[6] = tested on: eastern black nightshade (Solanum ptycanthum); experiment: Test C pre/postemergence; conditions: Solanum, pre-emergence, Preemergence, read-out: Plant response rating, Nightshade
In short: as §1

corn (Zea mays) = experiment: Test C pre/postemergence
In short: as §1

[7] = tested on: giant foxtail (Setaria faberi); experiment: Test A pre/postemergence
In short: (§2)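 Seeds in loam–sand blend received preemergence directed soil spray and, concurrently, postemergence application (plants 2–10 cm, 1–2-leaf stage) of compound in non-phytotoxic solvent with surfactant. After about ten days in greenhouse, injury rated visually versus untreated controls, 0 (no effect) to 100 (complete control).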

[8] = tested on: barnyardgrass (Echinochloa crus-galli); experiment: Test A pre/postemergence
In short: as §2

[9] = tested on: crabgrass (Digitaria sanguinalis); experiment: Test C pre/postemergence; conditions: Postemergence
In short: as §1

[10] = Postemergence, 125 g ai/ha, 0 to 100 scale (0 no effect, 100 complete control)
[11] = Postemergence, 500 g ai/ha, 0 to 100 scale (0 no effect, 100 complete control)
[12] = Preemergence, 125 g ai/ha, 0 to 100 scale where 0 is no effect and 100 is complete control, approximately ten days
[13] = Preemergence, 500 g ai/ha, 0 to 100 scale where 0 is no effect and 100 is complete control, approximately ten days
[14] = Postemergence, 125 g ai/ha, scale 0 to 100 (0 no effect, 100 complete control)

`Nc1nc(C2CC2)nc(C=O)c1Br` [Compound 26] gave a pest or weed control at 62 g/ha ([1]; Eleusine indica, pre-emergence, Preemergence, 62 g ai/ha, scale 0 to 100, 0 no effect, 100 complete control, read-out: Plant response rating, Goosegrass) of 0%, a pest or weed control at 125 g/ha ([1]; Eleusine indica, pre-emergence, Preemergence, 125 g ai/ha, scale 0 to 100, read-out: Plant response rating, Goosegrass) of 0% and a pest or weed control at 250 g/ha ([1]; Eleusine indica, pre-emergence, Preemergence, 250 g ai/ha, scale 0 to 100, read-out: Plant response rating, Goosegrass) of 0%. For the same compound, the pest or weed control at 500 g/ha ([1]; Eleusine indica, pre-emergence, Preemergence, 500 g ai/ha, scale 0 to 100, read-out: Plant response rating, Goosegrass) was 0%, the pest or weed control at 62 g/ha ([2]; Xanthium strumarium, pre-emergence, Preemergence, 62 g ai/ha, scale 0 to 100, 0 no effect, 100 complete control, read-out: Plant response rating, Cocklebur) was 70% and the pest or weed control at 125 g/ha ([2]; Xanthium strumarium, pre-emergence, Preemergence, 125 g ai/ha, scale 0 to 100, read-out: Plant response rating, Cocklebur) was 70%. It also gave a pest or weed control at 250 g/ha ([2]; Xanthium strumarium, pre-emergence, Preemergence, 250 g ai/ha, scale 0 to 100, read-out: Plant response rating, Cocklebur) of 90%, a pest or weed control at 500 g/ha ([2]; Xanthium strumarium, pre-emergence, Preemergence, 500 g ai/ha, scale 0 to 100, read-out: Plant response rating, Cocklebur) of 95% and a pest or weed control at 62 g/ha ([3]; Cynodon dactylon, pre-emergence, Preemergence, 62 g ai/ha, scale 0 to 100, 0 no effect, 100 complete control, read-out: Plant response rating, Bermudagrass) of 0%. It also gave a pest or weed control at 125 g/ha ([3]; Cynodon dactylon, pre-emergence, Preemergence, 125 g ai/ha, scale 0 to 100, read-out: Plant response rating, Bermudagrass) of 0%, a pest or weed control at 250 g/ha ([3]; Cynodon dactylon, pre-emergence, Preemergence, 250 g ai/ha, scale 0 to 100, read-out: Plant response rating, Bermudagrass) of 0% and a pest or weed control at 500 g/ha ([3]; Cynodon dactylon, pre-emergence, Preemergence, 500 g ai/ha, scale 0 to 100, read-out: Plant response rating, Bermudagrass) of 0%. It also gave a pest or weed control at 62 g/ha ([4]; Abutilon theophrasti, pre-emergence, Preemergence, 62 g ai/ha, scale 0 to 100, 0 no effect, 100 complete control, read-out: Plant response rating, Velvetleaf) of 0%, a pest or weed control at 125 g/ha ([4]; Abutilon theophrasti, pre-emergence, Preemergence, 125 g ai/ha, scale 0 to 100, read-out: Plant response rating, Velvetleaf) of 10% and a pest or weed control at 250 g/ha ([4]; Abutilon theophrasti, pre-emergence, Preemergence, 250 g ai/ha, scale 0 to 100, read-out: Plant response rating, Velvetleaf) of 90%. For the same compound, the pest or weed control at 500 g/ha ([4]; Abutilon theophrasti, pre-emergence, Preemergence, 500 g ai/ha, scale 0 to 100, read-out: Plant response rating, Velvetleaf) was 90%, the pest or weed control at 62 g/ha ([5]; Chenopodium album, pre-emergence, Preemergence, 62 g ai/ha, scale 0 to 100, 0 no effect, 100 complete control, read-out: Plant response rating, Lambsquarters) was 10% and the pest or weed control at 500 g/ha ([5]; Chenopodium album, pre-emergence, Preemergence, 500 g ai/ha, scale 0 to 100, read-out: Plant response rating, Lambsquarters) was 90%. It also gave a pest or weed control at 62 g/ha ([6]; 62 g ai/ha, scale 0 to 100, 0 no effect, 100 complete control) of 10%, a pest or weed control at 125 g/ha ([6]; 125 g ai/ha, scale 0 to 100) of 100% and a pest or weed control at 250 g/ha ([6]; 250 g ai/ha, scale 0 to 100) of 100%. For the same compound, the pest or weed control at 500 g/ha ([6]; 500 g ai/ha, scale 0 to 100) was 100%, the Corn plant response rating (crop injury, 0 = no effect, 100 = complete kill) at 62 g/ha (corn (Zea mays); Zea mays, pre-emergence, Preemergence, 62 g ai/ha, scale 0 to 100, 0 no effect, 100 complete control, read-out: Plant response rating, Corn) was 0% and the Corn plant response rating (crop injury, 0 = no effect, 100 = complete kill) at 125 g/ha (corn (Zea mays); Zea mays, pre-emergence, Preemergence, 125 g ai/ha, scale 0 to 100, read-out: Plant response rating, Corn) was 0%. For the same compound, the Corn plant response rating (crop injury, 0 = no effect, 100 = complete kill) at 250 g/ha (corn (Zea mays); Zea mays, pre-emergence, Preemergence, 250 g ai/ha, scale 0 to 100) was 0% and the Corn plant response rating (crop injury, 0 = no effect, 100 = complete kill) at 500 g/ha (corn (Zea mays); Zea mays, pre-emergence, Preemergence, 500 g ai/ha, scale 0 to 100) was 20%.

For `Nc1nc(-c2ccc(Br)cc2)nc(C(=O)O)c1Br` [Compound 136], the “Plant response rating, Foxtail, Giant” value [7, 10] was 75, the “Plant response rating, Foxtail, Giant” value [7, 11] was 80 and the “Plant response rating, Foxtail, Giant” value [7, 12] was 10. For the same compound, the “Plant response rating, Foxtail, Giant” value [7, 13] was 60, the “Plant response rating, Barnyardgrass” value [8, 10] was 50 and the “Plant response rating, Barnyardgrass” value [8, 11] was 80. The “Plant response rating, Barnyardgrass” value [8, 12] was 5, the “Plant response rating, Barnyardgrass” value [8, 13] was 40 and the “Plant response rating (scale of 0 to 100), Goosegrass” value ([1]; Postemergence, 16 g ai/ha) was 50. For the same compound, the “Plant response rating (scale of 0 to 100), Goosegrass” value ([1]; Postemergence, 31 g ai/ha) was 65, the “Plant response rating (scale of 0 to 100), Goosegrass” value ([1]; Postemergence, 62 g ai/ha) was 75 and the “Goosegrass plant response rating” value [1, 14] was 80. The “Plant response rating (scale of 0 to 100), Crabgrass” value ([9]; 16 g ai/ha) was 60, the “Plant response rating (scale of 0 to 100), Crabgrass” value ([9]; 31 g ai/ha) was 75 and the “Plant response rating (scale of 0 to 100), Crabgrass” value ([9]; 62 g ai/ha) was 75. For the same compound, the “Crabgrass plant response rating” value ([9]; 125 g ai/ha, scale 0 to 100 (0 no effect, 100 complete control)) was 75, the “Plant response rating (scale of 0 to 100), Cocklebur” value ([2]; Postemergence, 16 g ai/ha) was 95 and the “Plant response rating (scale of 0 to 100), Cocklebur” value ([2]; Postemergence, 31 g ai/ha) was 100. For the same compound, the “Plant response rating (scale of 0 to 100), Cocklebur” value ([2]; Postemergence, 62 g ai/ha) was 100, the “Cocklebur plant response rating” value [2, 14] was 100 and the “Plant response rating (scale of 0 to 100), Bermudagrass” value ([3]; 16 g ai/ha) was 75. The “Plant response rating (scale of 0 to 100), Bermudagrass” value ([3]; 31 g ai/ha) was 80, the “Bermudagrass plant response rating” value ([3]; 62 g ai/ha) was 80 and the “Bermudagrass plant response rating” value ([3]; 125 g ai/ha) was 85. The “Plant response rating (scale of 0 to 100), Velvetleaf” value ([4]; Postemergence, 16 g ai/ha) was 85, the “Plant response rating (scale of 0 to 100), Velvetleaf” value ([4]; Postemergence, 31 g ai/ha) was 85 and the “Plant response rating (scale of 0 to 100), Velvetleaf” value ([4]; Postemergence, 62 g ai/ha) was 90. For the same compound, the “Velvetleaf plant response rating” value [4, 14] was 95, the “Plant response rating (scale of 0 to 100), Lambsquarters” value ([5]; Postemergence, 16 g ai/ha) was 95 and the “Plant response rating (scale of 0 to 100), Lambsquarters” value ([5]; Postemergence, 31 g ai/ha) was 95. The “Plant response rating (scale of 0 to 100), Lambsquarters” value ([5]; Postemergence, 62 g ai/ha) was 95, the “Lambsquarters plant response rating” value [5, 14] was 95 and the “Plant response rating (scale of 0 to 100), Corn” value (corn (Zea mays); Postemergence, 16 g ai/ha) was 35. The “Plant response rating (scale of 0 to 100), Corn” value (corn (Zea mays); Postemergence, 31 g ai/ha) was 35, the “Plant response rating (scale of 0 to 100), Corn” value (corn (Zea mays); Postemergence, 62 g ai/ha) was 65 and the “Corn plant response rating” value (corn (Zea mays); [14]) was 75.
